Reference: patent US4225526A, “8-[(4-Aminophenyl)sulfonyl]amino-2-naphthalenyl phosphorodiamidate” (Morton-Norwich Products, Inc., priority 1979, dated 1980)
pIC50: −log10 of the molar value.

Target: T1, urease of intact Proteus mirabilis cells (Proteus mirabilis, UniProt P17086)
T1 construct: using intact Proteus mirabilis cells as the source of urease; endogenous in cells; host or cells: intact Proteus mirabilis cells
Test: anti-urease potency using intact Proteus mirabilis cells
Format: cell-based
Settings: 40 minutes preincubation, pH 8.0; ammonia formed in five minutes after addition of urea; read-out: concentration evincing 50% inhibition of the urease of intact Proteus mirabilis cells
Experimental: The anti-urease potency of the compound of this invention was determined using intact Proteus mirabilis cells as the source of urease. Compounds were preincubated with Proteus mirabilis cells suspended in a saline solution (0.1 molar) buffered with 0.1 molar tris(hydroxymethyl)aminomethane (pH 8.0). After 40 minutes preincubation, the remaining urease activity was determined by collecting the ammonia formed in five minutes after the addition of the substrate, urea. Ammonia assays were carried out according to the procedure of Seligson and Seligson [J. Lab. Clin. Med. 38, 324-330 (1951)]. Percent inhibition was calculated by comparing the amount of ammonia generated by cells preincubated with 8-[(4-aminophenyl)sulfonyl]amino-2-naphthalenyl phosphorodiamidate with the controls in which preincubation was carried out in the absence of compound.

T1 sequence (P17088 whole entry): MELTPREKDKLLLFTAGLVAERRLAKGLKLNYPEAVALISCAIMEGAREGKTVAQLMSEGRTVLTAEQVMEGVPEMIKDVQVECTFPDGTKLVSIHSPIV
T1 sequence (P17087 whole entry, further chain): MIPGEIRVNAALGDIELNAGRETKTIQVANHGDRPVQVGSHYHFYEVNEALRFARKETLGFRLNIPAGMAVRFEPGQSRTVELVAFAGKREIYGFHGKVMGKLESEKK
T1 sequence (P17086 whole entry): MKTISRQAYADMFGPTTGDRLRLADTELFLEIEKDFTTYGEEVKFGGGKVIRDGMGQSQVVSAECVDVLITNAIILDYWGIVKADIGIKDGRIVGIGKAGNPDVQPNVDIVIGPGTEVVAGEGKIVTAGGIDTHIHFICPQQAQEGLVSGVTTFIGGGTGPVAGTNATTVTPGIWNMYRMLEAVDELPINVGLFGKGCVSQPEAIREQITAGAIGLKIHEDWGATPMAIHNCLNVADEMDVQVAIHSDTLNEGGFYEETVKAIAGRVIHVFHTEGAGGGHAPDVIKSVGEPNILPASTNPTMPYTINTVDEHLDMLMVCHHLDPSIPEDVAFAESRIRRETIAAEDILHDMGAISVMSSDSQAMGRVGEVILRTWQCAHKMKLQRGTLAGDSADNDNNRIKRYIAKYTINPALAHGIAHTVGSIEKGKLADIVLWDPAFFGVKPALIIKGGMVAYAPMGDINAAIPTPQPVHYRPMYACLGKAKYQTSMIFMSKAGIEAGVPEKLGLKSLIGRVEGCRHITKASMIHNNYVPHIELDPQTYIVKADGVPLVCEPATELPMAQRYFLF

Nc1ccc(S(=O)(=O)Nc2cccc3ccc(OP(N)(N)=O)cc23)cc1 [this compound, 8-[(4-aminophenyl)sulfonyl]amino-2-naphthalenyl phosphorodiamidate]
pIC50: 6.40
